For series [1], the system named is MDA-MB-231 cells. Put plainly: Efficacy of DOX released from hydrogels (MTT, Annexin-PI FACS). The format is cell-based. How it is done: MDA-MB-231, breast cancer cell line was used for determining the efficacy of DOX release. To do so, MDA-MB-231 cells were grown on the DOX encapsulated hydrogels at a density of 2×10000 and cultured in complete DMEM media for 24 hrs. After 24 hrs, the cell morphology was imaged and the viability was then quantified using 3-(4,5-dimethylthiazol-2-yl)-2,5-diphenyl tetrazolium bromide (MTT) assay. FIG. 22A phase contrast images of MDA-MB-231 cells treated with DOX encapsulated hydrogels. […] For FACS analysis, MDAMB-231 cells were seeded on the hydrogel in the density 50,000 cells/well and allowed to grow for 24 hrs. Following the incubation, the cells were trypsinized and harvested in an eppendorf. The cell pellet was obtained by centrifugation and was resuspended in binding buffer. The percentage of apoptotic cells were measured by Annexin-PI staining method. 2 μl each of Annexin and PI was added to the resuspended cells and incubated for 5 mins before acquiring the results using FACS. […] To determine the efficacy of RA released from the hydrogel, SH-SY5Y neuroblastoma cells were seeded on hydrogel encapsulated with and without RA at a density of 1×10^4 and cultured in complete DMEM media. […] After 48 hrs, the morphology of these cells was analyzed by phase contrast images (FIG. 23A) and the cell shape was quantified by circularity using Image J software (FIG. 23C).

Series [2] in a line: MTT cytotoxicity assay of cells cultured on the hydrogels. It is filed as cell-based. The following applies: human, hydrogel 5 mg/ml peptide, 24 hours culture, read-out: cell viability. The method, then: To determine whether the functional amyloid hydrogel is non-toxic in nature, MTT (3-[4,5-dimethylthiazol-2-yl]-2,5 diphenyl tetrazolium bromide) assay was performed. The amyloid hydrogels were casted at a concentration of 5 mg/ml for each peptide and neuroblastoma, SH-SY5Y cells at a density of 10^4 were seeded and cultured on the hydrogels for 24 hours. The MTT reagent (0.5 mg/ml final concentration) was added to the cells after 24 hrs of culture and the cells were further incubated for 4 h. Finally, 100 μl of 50% N, N-dimethylformamide/20% sodium dodecyl sulfate solution was added, and the mixture was incubated overnight. The absorption was then measured at 560 nm with an automatic microtiter plate reader (Thermo Fisher Scientific, Waltham, MA, USA). FIG. 9 depicts the percentage of cell viability.

Series [3] relates to SH-SY5Y cells. Put plainly: Differentiation of cells on RA encapsulated hydrogels. The format is cell-based. The following applies: RA released from RA encapsulated hydrogels. How it is done:
MDA-MB-231, breast cancer cell line was used for determining the efficacy of DOX release. To do so, MDA-MB-231 cells were grown on the DOX encapsulated hydrogels at a density of 2×10000 and cultured in complete DMEM media for 24 hrs. After 24 hrs, the cell morphology was imaged and the viability was then quantified using 3-(4,5-dimethylthiazol-2-yl)-2,5-diphenyl tetrazolium bromide (MTT) assay. FIG. 22A phase contrast images of MDA-MB-231 cells treated with DOX encapsulated hydrogels. […] For FACS analysis, MDAMB-231 cells were seeded on the hydrogel in the density 50,000 cells/well and allowed to grow for 24 hrs. Following the incubation, the cells were trypsinized and harvested in an eppendorf. The cell pellet was obtained by centrifugation and was resuspended in binding buffer. The percentage of apoptotic cells were measured by Annexin-PI staining method. 2 μl each of Annexin and PI was added to the resuspended cells and incubated for 5 mins before acquiring the results using FACS. […] After 48 hrs, the morphology of these cells was analyzed by phase contrast images (FIG. 23A) and the cell shape was quantified by circularity using Image J software (FIG. 23C).
The SH-SY5Y cells grown on hydrogel were immunostained with β-III tubulin (β-IIIT), a neuron specific marker to determine the efficacy of the released RA (FIG. 23B). […] The gene expression was analyzed by Real-time PCR technique.

In series [4] the test system is MCF7 spheroids. Put plainly: MTT cytotoxicity of chemotherapeutic drugs on spheroids versus 2D culture. The format is cell-based. The following applies: 0-14 μM, 24 h. How it is done:
Cytotoxicity assays by MIT: MCF7 spheroids were cultured for five days in DMEM (Dulbecco's modified Eagle's medium) with 10% FBS, in a 5% CO2 incubator at 37° C. followed by treatment with different chemotherapeutics drugs (0-14 μM) for 24 h. For control, media containing buffer. After 24 h of incubation, 10 μl of MTT solution (5 mg/ml prepared in PBS) was added to each well and incubated for 4 h. Subsequently, 100 μl of SDS-DMF solution (50% DMF and 20% SDS, pH 4.75) were added and kept for overnight incubation. The absorption values at 560 nm and 690 nm (background absorbance) were determined using a SpectraMax M2e microplate reader (Molecular Devices, USA). The cell viability was plotted as percentage cell viability by considering 100% viability for the buffer control (FIG. 18 A).
Dense spheroids tended to show relative resistance to all these five chemotherapeutic drugs in the 3D-culture as compared to this resistance in 2D. […] These findings confirm that the formation of dense spheroids in 3D-culture plays a role in determining the sensitivity of the cell lines to these chemotherapeutic drugs. […] 3D, geometrical difference can have far-reaching impacts in terms of understanding physiological response.

Series [5] deals with STZ-induced diabetic rat model. The series can be described thus: Insulin delivery from hydrogels in diabetic rats. The method, then:
The functional amyloid hydrogel encapsulated with insulin (5 mg/ml) was administered subcutaneously to the diabetic rat model. Blood samples were collected from the tail veins of rats prior to drug administration and at different time intervals after dosing. Diabetes model rats were fasted for 12 h prior to and remained fasted during the experiment, but were allowed water ad libitum. The blood glucose level was checked biochemically at regular interval. The insulin released from the hydrogel in vivo was also monitored. To do that, blood samples were centrifuged (10,000 rpm, 4° C. for 15 min) and subsequently quantified using an appropriate insulin ELISA kit and during various time intervals.

The test system of series [6] is MCF7 spheroids. The series can be described thus: Fluorescence live/dead study of drug effect on 2D versus 3D. It is filed as cell-based. The following applies: 24 h. How it is done:
Fluorescence study was also performed to observe the effect of drug on 2D versus 3D. Here, after maturation of spheroids i.e., 5 days of culture on gel 4, different dose of paclitaxel (2-10 μM) was added for 24 h. To assess the effect of drug, cell viability was observed by staining through calcein AM and ethidium homodimer-1. Images were captured after incubation with dyes for 1 h. […] On the other hand, at the concentration of 4 μM, 70% of the cells for 2D are dead for the drug paclitaxel (FIG. 18 B).

Where a SMILES comes first, the peptide text is derived from it. The star is where a group is joined. Fmoc = O=C(OCC1c2ccccc2-c2ccccc21)* Bounds are passed on as bounds.

`COc1cccc2c1C(=O)c1c(O)c3c(c(O)c1C2=O)C[C@@](O)(C(=O)CO)C[C@@H]3O[C@H]1C[C@H](N)[C@H](O)[C@H](C)O1` [DOX, doxorubicin]: the “change in cell viability (FACS, Annexin-PI)” value in series [1] (DOX encapsulated in the hydrogels, 24 hrs) is listed as “decrease in cell viability”. Moreover, the cancer cell death in series [1] (DOX released from DOX encapsulated hydrogels) was approximately 70%.

On to `CC[C@H](C)[C@H](NC(=O)[C@H](CCC(=O)O)NC(=O)[C@H](CCSC)NC(=O)[C@H](CC(C)C)NC(=O)[C@H](CCCCN)NC(=O)OCC1c2ccccc2-c2ccccc21)C(=O)O` [FA1, KLMEI] (Fmoc-KLMEI-OH; N-terminus and C-terminus assumed), for which the viability at 24 h, 5000 µg/mL in series [2] was more than 80%. `CC1=C(/C=C/C(C)=C/C=C/C(C)=C/C(=O)O)C(C)(C)CCC1` [RA, trans-retinoic acid]: the differentiation of cells entry in series [3] is given as “induced differentiation of SH-SY5Y cells towards neuronal lineage”. `O=c1[nH]cc(F)c(=O)[nH]1` [5FU]: the “death in 3D” value in series [4] is recorded as “more death in 3D as compared to other drugs”. `CC(C)C[C@H](NC(=O)[C@@H](NC(=O)[C@@H](NC(=O)[C@H](C)NC(=O)OCC1c2ccccc2-c2ccccc21)C(C)C)C(C)C)C(=O)N[C@@H](CO)C(=O)O` [FA3, AVVLS] (Fmoc-AVVLS-OH; N-terminus and C-terminus assumed): in series [2], the viability at 24 h, 5000 µg/mL was more than 80%.

For the compound insulin, the blood sugar level in series [5] (insulin encapsulated in the hydrogels, subcutaneously injected) lay in the range of 100 to 120 mg/dL. Besides, in series [5] (only insulin control), the “time blood glucose level maintained after administration” value was not above 6 h and the “time serum insulin level maintained after administration” value is not above 6 h. For `CC[C@H](C)[C@H](NC(=O)[C@H](CC(=O)O)NC(=O)[C@H](CC(C)C)NC(=O)[C@H](CC(C)C)NC(=O)[C@H](CCCCN)NC(=O)OCC1c2ccccc2-c2ccccc21)C(=O)O` [FA2, KLLDI] (Fmoc-KLLDI-OH; N-terminus and C-terminus assumed), the viability at 24 h, 5000 µg/mL in series [2] was more than 80%. `CC(=O)O[C@H]1C(=O)[C@@]2(C)[C@H]([C@H](OC(=O)c3ccccc3)[C@]3(O)C[C@H](OC(=O)[C@H](O)[C@@H](NC(=O)c4ccccc4)c4ccccc4)C(C)=C1C3(C)C)[C@]1(OC(C)=O)CO[C@@H]1C[C@@H]2O` [paclitaxel]: the “cells dead in 2D” value in series [6] (4 μM, calcein AM / ethidium homodimer-1) was 70%. In addition, the “resistance 3D versus 2D” value in series [6] (2-10 μM, spheroids 5 days on gel 4) is 3D are more resistant than 2D.
